Assay results reported in article PMC5735069, “Targeting the NFAT1-MDM2-MDMX Network Inhibits the Proliferation and Invasion of Prostate Cancer Cells, Independent of p53 and Androgen” (Frontiers in Pharmacology, 2017).

Columns and labels:
[1] = molecular target: T1, MDMX (Homo sapiens, UniProt O15151); test: biotin-InuA streptavidin pulldown with free InuA competition; time-dependent covalent binding kinetics by Western blot (biotin-InuA)
T1 construct: gene MDM4; GST-MDMX RING (RING domain)
T1 sequence (O15151 428-490 limits assumed): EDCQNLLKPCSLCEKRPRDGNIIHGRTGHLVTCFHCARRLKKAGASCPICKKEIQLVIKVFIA

[2] = molecular target: T2, MDM2 (Homo sapiens, UniProt Q00987); test: as above
T2 construct: GST-MDM2 RING (RING domain)
T2 sequence (Q00987 428-491 limits assumed): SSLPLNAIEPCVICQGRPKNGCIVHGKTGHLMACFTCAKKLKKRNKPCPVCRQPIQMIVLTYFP

Inulanolide A [InuA]
KI (inactivation) [1]: 860 nM
KI (inactivation) [2]: 550 nM
